These results are taken from patent publication US12403137B2, “Compounds and methods of use” (Tango Therapeutics, Inc., priority 2019, dated 2025).

Molecules are shown by their SMILES.

The target in assay [1] is T1, PRMT5 (Homo sapiens, UniProt O14744).
T1 construct: purchased Viva (custom protein)
The experiment in a line: PRMT5 inhibition assay with SAM as cofactor. As to conditions: against PRMT5 in the presence of SAM as cofactor. The format is biochemical. The text has this: (§1) The Ki values can be calculated from the IC50 values as described in the Examples section. As detailed in the Examples section, for the assay performed in the presence of SAM, IC50=Ki×1.5 (Ki=IC50/1.5). For the assay performed in the presence of MTA, IC50=Ki×13.5 (Ki=IC50/13.5). Column 6 indicates the ratio between the Ki of compounds in the presence of SAM and the Ki of compounds in the presence of MTA

In assay [2] the target is T1, PRMT5. The experiment in a line: PRMT5 inhibition assay with no cofactor. Format: biochemical. As to conditions: against PRMT5 with no cofactor; read-out: No Co-factor IC50.
The target of assay [3] is T1, PRMT5. The experiment in a line: PRMT5 inhibition assay with MTA as cofactor. Format: biochemical. As to conditions: for IC50: against PRMT5 with MTA as cofactor; for SAM/MTA Ratio: ratio of Ki in the presence of SAM to Ki in the presence of MTA, Ki=IC50/1.5 (SAM), Ki=IC50/13.5 (MTA).
From the text: as §1

Assay [4] deals with HAP1 MTAP-intact cell line. As to the kind of experiment: SDMA in-cell western assay, HAP1 MTAP-intact. Format: cell-based. The conditions noted are these: Homo sapiens. The method, boiled down: (§2)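 IC50 values come from an SDMA in-cell western run in isogenic HAP1 cells, either MTAP-null or expressing endogenous MTAP. The intact-to-deleted IC50 ratio is used to score MTAP selectivity.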

For assay [5], the system named is HAP1 MTAP-deleted cell line. As to the kind of experiment: SDMA in-cell western assay, HAP1 MTAP-deleted. The format is cell-based. The conditions noted are these: for IC50: Homo sapiens, HAP1 MTAP-deleted (MTAP-null) cell line; for MTAP Intact/Deleted Ratio: IC50 ratio HAP1 MTAP-intact / HAP1 MTAP-deleted, >=3 fold considered MTAP-selective. The method, boiled down:
as §2

T1 sequence (O14744 whole entry): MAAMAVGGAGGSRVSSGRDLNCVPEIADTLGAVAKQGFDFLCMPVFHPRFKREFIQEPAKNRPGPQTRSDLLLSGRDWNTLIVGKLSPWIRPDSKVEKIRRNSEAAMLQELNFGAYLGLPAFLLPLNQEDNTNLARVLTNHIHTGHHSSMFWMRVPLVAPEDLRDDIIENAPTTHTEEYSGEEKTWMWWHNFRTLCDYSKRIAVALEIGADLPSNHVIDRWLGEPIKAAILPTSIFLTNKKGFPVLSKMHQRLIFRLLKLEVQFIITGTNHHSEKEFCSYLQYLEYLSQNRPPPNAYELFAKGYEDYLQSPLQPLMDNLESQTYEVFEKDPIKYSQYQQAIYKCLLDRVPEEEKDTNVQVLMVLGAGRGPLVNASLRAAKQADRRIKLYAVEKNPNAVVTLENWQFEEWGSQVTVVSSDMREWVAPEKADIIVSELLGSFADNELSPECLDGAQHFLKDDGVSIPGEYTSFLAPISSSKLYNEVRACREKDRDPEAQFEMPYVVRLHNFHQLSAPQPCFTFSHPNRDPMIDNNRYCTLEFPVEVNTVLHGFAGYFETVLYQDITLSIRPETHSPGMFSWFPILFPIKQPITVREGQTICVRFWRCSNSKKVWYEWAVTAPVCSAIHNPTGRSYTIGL
T1 sequence (Q9BQA1 whole entry partner): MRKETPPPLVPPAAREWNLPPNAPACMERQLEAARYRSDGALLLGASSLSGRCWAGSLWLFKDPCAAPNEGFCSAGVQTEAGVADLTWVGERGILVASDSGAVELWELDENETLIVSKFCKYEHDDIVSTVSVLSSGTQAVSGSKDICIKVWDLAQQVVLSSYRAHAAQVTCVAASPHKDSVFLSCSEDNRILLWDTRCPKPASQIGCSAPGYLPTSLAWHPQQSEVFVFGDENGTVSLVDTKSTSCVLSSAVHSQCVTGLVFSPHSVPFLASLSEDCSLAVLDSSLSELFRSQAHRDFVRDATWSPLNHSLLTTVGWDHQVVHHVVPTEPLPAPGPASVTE

For the compound `CC(=O)N1CCC(Nc2cc(C(=O)NC[C@@H](O)[C@@H]3Cc4ccc(OCc5ocnc5C)cc4CN3)cc(N3CCCCC3)n2)CC1` [Compound 40, 2-[(1-acetyl-4-piperidyl)amino]-N-[(2R)-2-hydroxy-2-[(3S)-7-[(4-methyloxazol-5-yl)methoxy]-1,2,3,4-tetrahydroisoquinolin-3-yl]ethyl]-6-(1-piperidyl)pyridine-4-carboxamide], the IC50 at PRMT5 [1] was 50 to 500 nM; at PRMT5 [2], 50 to 500 nM; on PRMT5 [3] it was less than 50 nM; in assay [4], 1000 to 10000 nM; in assay [5], less than 1000 nM. At PRMT5 [3], the “SAM/MTA Ratio” value was “A (a Ki ratio greater than or equal to 10 fold between the Ki in the presence of SAM and the Ki in the presence of MTA)”. For the same compound, the “MTAP Intact/Deleted Ratio” value in assay [5] is “A* (an IC50 ratio greater than or equal to 10 fold between the IC50 in the HAP1 MTAP-intact cell line and the HAP1 MTAP-deleted cell line)”.

Take `CC(=O)N1CCC(Nc2cc(C(=O)NC[C@@H](O)[C@@H]3Cc4ccc(OCc5ocnc5C)cc4CN3)ncn2)CC1` [Compound 41, 6-[(1-acetyl-4-piperidyl)amino]-N-[(2R)-2-hydroxy-2-[(3S)-7-[(4-methyloxazol-5-yl)methoxy]-1,2,3,4-tetrahydroisoquinolin-3-yl]ethyl]pyrimidine-4-carboxamide]: the IC50 was 50 to 500 nM at PRMT5 [1]; 500 to 5000 nM at PRMT5 [2]; less than 50 nM on PRMT5 [3]; not below 10000 nM in assay [4]; 1000 to 10000 nM in assay [5]. The “SAM/MTA Ratio” value at PRMT5 [3] was “A (a Ki ratio greater than or equal to 10 fold between the Ki in the presence of SAM and the Ki in the presence of MTA)”. Also, the “MTAP Intact/Deleted Ratio” value in assay [5] was “B* (an IC50 ratio greater than or equal to 3 fold but lower than 10 fold between the IC50 in the HAP1 MTAP-intact cell line and the HAP1 MTAP-deleted cell line)”.

On to `Cc1ncoc1COc1ccc2c(c1)CN[C@H]([C@H](O)CNC(=O)c1cc(NC3CC4(CCC4)C3)nc(N3CCN(C(=O)C4CC4)CC3)c1)C2` [Compound 42, 2-[4-(cyclopropanecarbonyl)piperazin-1-yl]-N-[(2R)-2-hydroxy-2-[(3S)-7-[(4-methyloxazol-5-yl)methoxy]-1,2,3,4-tetrahydroisoquinolin-3-yl]ethyl]-6-(spiro[3.3]heptan-2-ylamino)pyridine-4-carboxamide], for which the IC50 on PRMT5 [1] was 50 to 500 nM; at PRMT5 [2], 50 to 500 nM; against PRMT5 [3] it was 50 to 500 nM; in assay [4], less than 1000 nM; in assay [5], less than 1000 nM. The “SAM/MTA Ratio” value at PRMT5 [3] is “A (a Ki ratio greater than or equal to 10 fold between the Ki in the presence of SAM and the Ki in the presence of MTA)”. Moreover, in assay [5], the “MTAP Intact/Deleted Ratio” value was “A* (an IC50 ratio greater than or equal to 10 fold between the IC50 in the HAP1 MTAP-intact cell line and the HAP1 MTAP-deleted cell line)”.

`Cc1ncoc1COc1ccc2c(c1)CN[C@H]([C@H](O)CNC(=O)c1cc(NC3CC4(CCC4)C3)ncn1)C2` [Compound 43, N-[(2R)-2-hydroxy-2-[(3S)-7-[(4-methyloxazol-5-yl)methoxy]-1,2,3,4-tetrahydroisoquinolin-3-yl]ethyl]-6-(spiro[3.3]heptan-2-ylamino)pyrimidine-4-carboxamide]: the IC50 was 50 to 500 nM on PRMT5 [1]; 50 to 500 nM at PRMT5 [2]; less than 50 nM against PRMT5 [3]; 1000 to 10000 nM in assay [4]; less than 1000 nM in assay [5]. Further, the “SAM/MTA Ratio” value at PRMT5 [3] is “A (a Ki ratio greater than or equal to 10 fold between the Ki in the presence of SAM and the Ki in the presence of MTA)”. Also, in assay [5], the “MTAP Intact/Deleted Ratio” value is “A* (an IC50 ratio greater than or equal to 10 fold between the IC50 in the HAP1 MTAP-intact cell line and the HAP1 MTAP-deleted cell line)”.

For the compound `CC(=O)N1CCC(Nc2cc(C(=O)NC[C@@H](O)[C@@H]3Cc4ccc(OCc5ocnc5C)cc4CN3)ccn2)CC1` [Compound 44, 2-[(1-acetyl-4-piperidyl)amino]-N-[(2R)-2-hydroxy-2-[(3S)-7-[(4-methyloxazol-5-yl)methoxy]-1,2,3,4-tetrahydroisoquinolin-3-yl]ethyl]pyridine-4-carboxamide], the IC50 was 50 to 500 nM on PRMT5 [1]; 50 to 500 nM at PRMT5 [2]; less than 50 nM on PRMT5 [3]; not below 10000 nM in assay [4]; 1000 to 10000 nM in assay [5]. Moreover, at PRMT5 [3], the “SAM/MTA Ratio” value is “A (a Ki ratio greater than or equal to 10 fold between the Ki in the presence of SAM and the Ki in the presence of MTA)”. Further, the “MTAP Intact/Deleted Ratio” value in assay [5] was “B* (an IC50 ratio greater than or equal to 3 fold but lower than 10 fold between the IC50 in the HAP1 MTAP-intact cell line and the HAP1 MTAP-deleted cell line)”.

For `CC(=O)N1CC(Nc2cc(C(=O)NC[C@@H](O)[C@@H]3Cc4ccc(OCc5ocnc5C)cc4CN3)cc(N3CCCCC3)n2)C1` [Compound 45, 2-[(1-acetylazetidin-3-yl)amino]-N-[(2R)-2-hydroxy-2-[(3S)-7-[(4-methyloxazol-5-yl)methoxy]-1,2,3,4-tetrahydroisoquinolin-3-yl]ethyl]-6-(1-piperidyl)pyridine-4-carboxamide], the IC50 on PRMT5 [1] was 50 to 500 nM; on PRMT5 [2], 50 to 500 nM; on PRMT5 [3] it was less than 50 nM; in assay [4] it was not below 10000 nM; in assay [5], less than 1000 nM. For the same compound, the “SAM/MTA Ratio” value at PRMT5 [3] was “A (a Ki ratio greater than or equal to 10 fold between the Ki in the presence of SAM and the Ki in the presence of MTA)”. Moreover, the “MTAP Intact/Deleted Ratio” value in assay [5] is “A* (an IC50 ratio greater than or equal to 10 fold between the IC50 in the HAP1 MTAP-intact cell line and the HAP1 MTAP-deleted cell line)”.

Consider `Cc1ncoc1COc1ccc2c(c1)CN[C@H]([C@H](O)CNC(=O)c1ccnc(NC3CC4(CCC4)C3)c1)C2` [Compound 46, N-[(2R)-2-hydroxy-2-[(3S)-7-[(4-methyloxazol-5-yl)methoxy]-1,2,3,4-tetrahydroisoquinolin-3-yl]ethyl]-2-(spiro[3.3]heptan-2-ylamino)pyridine-4-carboxamide], for which the IC50 at PRMT5 [1] was 50 to 500 nM; on PRMT5 [2] it was 50 to 500 nM; on PRMT5 [3], less than 50 nM; in assay [4], less than 1000 nM; in assay [5], less than 1000 nM. Also, at PRMT5 [3], the “SAM/MTA Ratio” value is “A (a Ki ratio greater than or equal to 10 fold between the Ki in the presence of SAM and the Ki in the presence of MTA)”. The “MTAP Intact/Deleted Ratio” value in assay [5] was “B* (an IC50 ratio greater than or equal to 3 fold but lower than 10 fold between the IC50 in the HAP1 MTAP-intact cell line and the HAP1 MTAP-deleted cell line)”.

Take `CC(=O)N1CC(Nc2cc(C(=O)NC[C@@H](O)[C@@H]3Cc4ccc(OCc5ocnc5C)cc4CN3)nc(N3CCN(C(C)C)CC3)n2)C1` [Compound 47, 6-[(1-acetylazetidin-3-yl)amino]-N-[(2R)-2-hydroxy-2-[(3S)-7-[(4-methyloxazol-5-yl)methoxy]-1,2,3,4-tetrahydroisoquinolin-3-yl]ethyl]-2-(4-isopropylpiperazin-1-yl)pyrimidine-4-carboxamide]: the IC50 is 50 to 500 nM on PRMT5 [1]; 50 to 500 nM on PRMT5 [2]; less than 50 nM against PRMT5 [3]; not below 10000 nM in assay [4]; 1000 to 10000 nM in assay [5]. Besides, on PRMT5 [3], the “SAM/MTA Ratio” value was “A (a Ki ratio greater than or equal to 10 fold between the Ki in the presence of SAM and the Ki in the presence of MTA)”. Further, in assay [5], the “MTAP Intact/Deleted Ratio” value is “C* (an IC50 ratio of less than 3 fold between the IC50 in the HAP1 MTAP-intact cell line and the HAP1 MTAP-deleted cell line)”.

On to `Cc1ncoc1COc1ccc2c(c1)CN[C@H]([C@H](O)CNC(=O)c1cc(NC3CCC3)nc(N3CCCCC3)n1)C2` [Compound 49, 6-(cyclobutylamino)-N-[(2R)-2-hydroxy-2-[(3S)-7-[(4-methyloxazol-5-yl)methoxy]-1,2,3,4-tetrahydroisoquinolin-3-yl]ethyl]-2-(1-piperidyl)pyrimidine-4-carboxamide], for which the IC50 is 50 to 500 nM at PRMT5 [1]; 50 to 500 nM at PRMT5 [2]; less than 50 nM on PRMT5 [3]; 1000 to 10000 nM in assay [4]; less than 1000 nM in assay [5]. The “SAM/MTA Ratio” value on PRMT5 [3] is “A (a Ki ratio greater than or equal to 10 fold between the Ki in the presence of SAM and the Ki in the presence of MTA)”. The “MTAP Intact/Deleted Ratio” value in assay [5] was “A* (an IC50 ratio greater than or equal to 10 fold between the IC50 in the HAP1 MTAP-intact cell line and the HAP1 MTAP-deleted cell line)”.

`CC(=O)N1CCC(Nc2cc(C(=O)NC[C@@H](O)[C@@H]3Cc4ccc(OCc5ocnc5C)cc4CN3)nc(N3CCCCC3)n2)CC1` [Compound 50, 6-[(1-acetyl-4-piperidyl)amino]-N-[(2R)-2-hydroxy-2-[(3S)-7-[(4-methyloxazol-5-yl)methoxy]-1,2,3,4-tetrahydroisoquinolin-3-yl]ethyl]-2-(1-piperidyl)pyrimidine-4-carboxamide]: the IC50 was 50 to 500 nM at PRMT5 [1]; 50 to 500 nM on PRMT5 [2]; less than 50 nM against PRMT5 [3]; less than 1000 nM in assay [4]; less than 1000 nM in assay [5]. For the same compound, the “SAM/MTA Ratio” value on PRMT5 [3] was “A (a Ki ratio greater than or equal to 10 fold between the Ki in the presence of SAM and the Ki in the presence of MTA)”. For the same compound, the “MTAP Intact/Deleted Ratio” value in assay [5] is “A* (an IC50 ratio greater than or equal to 10 fold between the IC50 in the HAP1 MTAP-intact cell line and the HAP1 MTAP-deleted cell line)”.

As usually defined, the IC50 is the concentration that inhibits the measured activity by half.
